Values of other authors as cited in patent US20090215766A1, “TETRACYCLIC INHIBITORS OF JANUS KINASES” (Incyte Corporation, priority 2004, published 2009).

Tests used:
[1] = test system: NOD mouse model of autoimmune type 1 diabetes
[2] = test system: myeloid dendritic cells (DCs); settings: CD40-induced maturation of myeloid DCs
[3] = test system: IL-6-dependent MM cell lines

## COc1cc2ncnc(Nc3ccc(O)cc3)c2cc1OC [JANEX-1]
[1]
  onset of diabetes: delayed the onset of diabetes

## COc1cc2ncnc(Nc3ccc(O)c(Br)c3)c2cc1OC [WHI-P-154]
[2]
  CD40-induced DC maturation effects (costimulatory molecule expression, IL-12 production, allogeneic stimulatory capacity): prevented these effects

## N#C/C(=C\c1ccc(O)c(O)c1)C(=O)NCc1ccccc1 [tyrphostin AG490]
[3]
  ERK2 and STAT3 phosphorylation: inhibited
  JAK2 kinase activity: inhibited
  apoptosis: induced
  cell proliferation: suppressed
